Results published in patent publication US9034303B2, “Neuroprotective and neuro-restorative iron chelators and monoamine oxidase inhibitors and uses thereof” (priority 2010, dated 2015).
Entries after “also recorded” stand apart in the source; their conditions may differ.

How the values were obtained:
[1] = tested on: 6-OHDA-induced lesions of nigrostrial dopamine neurons; settings: prior publications; cited from earlier work
[2] = prior publications; cited from earlier work
MAO-B = MAO-B (Mus musculus (Mouse), UniProt Q8BW75); assay: In vivo MAO-B inhibition in mice after a single i.p. injection; settings: small intestine, one hour later
Procedure: (§1) For the MAO-inhibition study, mice (6 mice in each group) were injected intraperitoneally (i.p.) with compound 3 at the dosage of 5 or 10 mg/kg; or with M30 at the dosage of 10 mg/kg. Control mice received saline (0.1 mL) i.p. One hour later the mice were killed by cervical dislocation, while striatum and small intestine were removed rapidly and frozen in liquid nitrogen for further analysis. FIGS. 3 and 4 show MAO-A/MAO-B in vivo activity of compound 3 compared to the activity of M30. FIG. 3 presents an MAO inhibition in striatum, and FIG. 4 presents an MAO inhibition in intestine. The percent inhibition was computed based on comparison to control animals.

[3] = Cytotoxicity experiments conducted in the past with M30, HepG2; type: cell-based; settings: human, HepG2 cells, methods not identical, read-out: LC50 (μM) HepG2
Source text: (§2) Moreover, the outcomes of the cytotoxicity experiments compare very favorably with those conducted in the past with M30.

[4] = Follow-up stability experiment at 37° C. in PBS; type: physicochemical
Procedure: (§3) Using high pressure liquid chromatography (HPLC), the stability of each of the tested compounds was determined by following its respective chemical character over time in either phosphate buffered saline (PBS) and/or 0.85% saline solution (sodium chloride). In each case, 0.5 mM of the tested compound in PBS or saline solution was incubated at 25° C. or at 37° C. for 20 hours or, in some cases, up to two days (48 hours).
In addition, in a follow-up experiment the instability of M30, and the stability of compounds 3, 7 and 8 was also confirmed at 37° C. in PBS, Table 2, below.

[5] = Stability in aqueous solution (PBS or saline) followed by HPLC; type: physicochemical; settings: for Amount of compound remaining (%): 25° C., 0.5 mM
Procedure: as §3

MAO-A = MAO-A (Mus musculus (Mouse), UniProt Q64133); type: in vivo, mice; settings: mice, single i.p. injection, small intestine, one hour later
Procedure: as §1

[6] = Cytotoxicity experiments conducted in the past with M30, SHSY-5Y; type: cell-based, human; settings: human, SH-SY5Y cells; experiments conducted in the past, methods not identical; read-out: LC50 (μM) SHSY-5Y
Source text: as §2

SHSY-5Y = assay: as above; type: cell-based, human; settings: past experiments
Source text: as §2

[7] = Cytotoxicity experiments conducted in the past with M30, A549; type: cell-based; settings: human, A549 cells, methods not identical, read-out: LC50 (μM) A549
Source text: as §2

in vitro = settings: human
Procedure: The cytotoxicity of compound 3 was assessed in vitro using two standard cell lines, HepG2, derived from a human hepatocellular carcinoma, and SH-SY5Y, derived from a human neuroblastoma, both in the presence and absence of excess iron.
HepG2 cells were maintained at ˜5% CO2, 37° C., and 95% relative humidity in minimal essential media (MEM) supplemented with 10% fetal bovine serum plus 0.1 mM non-essential amino acids, 2 mM L-glutamine, and penicillin/streptomycin. SH-SY5Y cells were maintained at ˜5% CO2, 37° C., and 95% relative humidity in a mixture of minimal essential media (MEM) and F12 K media (1:1, v:v) supplemented with 10% fetal bovine serum plus 0.1 mM non-essential amino acids, 2 mM L-glutamine, and penicillin/streptomycin. The cells were subcultured every two to three days and plated in tissue culture treated opaque white 96-well plates at a density of 1×10^4 cells/well and incubated at ˜5% CO2, 37° C., and 95% relative humidity overnight prior to initiation of the assay.
A series of DMSO stocks of the test article at 100× of the final concentration were diluted 1:100 with fresh culture media (final DMSO concentration was 1%). The media from the plated cells was removed and replaced with 100 μL of media containing test article or tamoxifen with final concentrations ranging between 0.01 to 1000 μM in triplicate. Wells containing no cells were used as background controls. Tamoxifen was used as a known positive control and DMSO alone was used as a vehicle control. The cells were incubated for four hours at ˜5% CO2, 37° C., and 95% relative humidity.
Cell viability was determined using a commercially available kit to determine ATP levels by luminescence. Briefly, the buffer and lyophilized substrate from the kit were equilibrated to room temperature. The buffer was used to reconstitute the substrate just prior to addition to the wells of the cell plate (100 μL per well). The plate was placed into the Tecan Infinite M200 plate reader, agitated for 10 minutes followed by a 10 minute wait period, then read using an integration time of 0.5 seconds with no attenuation.
The mean luminescence from the test article treated cells was compared to that treated by DMSO only.

Chain of MAO-B (Q8BW75 whole entry): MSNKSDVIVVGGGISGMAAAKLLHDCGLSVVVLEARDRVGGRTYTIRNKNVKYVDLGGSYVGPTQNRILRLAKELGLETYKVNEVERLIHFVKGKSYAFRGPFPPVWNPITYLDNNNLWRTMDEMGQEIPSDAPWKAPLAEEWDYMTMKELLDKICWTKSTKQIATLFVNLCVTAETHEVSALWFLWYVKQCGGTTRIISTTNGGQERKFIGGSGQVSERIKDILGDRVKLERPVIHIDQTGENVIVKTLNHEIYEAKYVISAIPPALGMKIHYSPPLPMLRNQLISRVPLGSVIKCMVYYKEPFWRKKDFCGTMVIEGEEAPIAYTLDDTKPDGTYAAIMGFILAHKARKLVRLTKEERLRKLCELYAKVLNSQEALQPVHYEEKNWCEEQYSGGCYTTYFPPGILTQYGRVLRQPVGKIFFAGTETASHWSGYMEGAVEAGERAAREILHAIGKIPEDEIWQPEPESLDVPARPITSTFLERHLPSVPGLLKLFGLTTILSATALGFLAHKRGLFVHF
Chain of MAO-A (Q64133 whole entry): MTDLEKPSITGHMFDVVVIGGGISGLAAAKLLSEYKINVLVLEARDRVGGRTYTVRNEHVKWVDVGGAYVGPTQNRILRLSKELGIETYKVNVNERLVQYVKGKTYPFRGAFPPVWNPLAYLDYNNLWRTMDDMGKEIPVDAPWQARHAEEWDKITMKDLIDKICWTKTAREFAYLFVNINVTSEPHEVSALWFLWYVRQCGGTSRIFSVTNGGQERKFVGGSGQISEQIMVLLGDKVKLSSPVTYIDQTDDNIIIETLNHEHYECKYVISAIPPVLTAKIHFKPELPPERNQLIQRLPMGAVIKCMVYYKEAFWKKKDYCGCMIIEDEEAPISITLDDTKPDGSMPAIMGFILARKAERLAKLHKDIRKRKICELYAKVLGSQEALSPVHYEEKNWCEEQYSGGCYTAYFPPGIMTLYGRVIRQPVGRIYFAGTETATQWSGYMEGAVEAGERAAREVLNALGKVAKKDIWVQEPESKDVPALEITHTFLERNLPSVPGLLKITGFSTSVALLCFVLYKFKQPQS

## OCCN1CCN(Cc2ccc(O)c3ncccc23)CC1 [5-[4-(2-hydroxyethyl)piperazin-1-ylmethyl]-8-hydroxyquinoline]
[1]
  Activity against 6-OHDA in an animal model of Parkinson's disease: active against 6-hydroxydopamine (6-OHDA)
[2]
  Crossing of the BBB: able to cross the BBB

## C#CCN(C)Cc1ccc(O)c2ncccc12 [Compound M30, 5-[(methyl-2-propyn-1-ylamino)methyl]-8-quinolinol, reference compound]
MAO-B
  MAO-B inhibition in intestine: Reduced inhibition in the intestinal tissue versus striatal tissue
[3]
  CC50: 842 µM
[4]
  Stability at 37° C. in PBS (in words): instability
[4]; 0.5 hours
  Amount of compound remaining (%): 50.8%
[4]; 1 hour
  Amount of compound remaining (%): 54.9%
[4]; 2 hours
  Amount of compound remaining (%): 45.1%
[4]; 4 hours
  Amount of compound remaining (%): 24.3%
[4]; 8 hours
  Amount of compound remaining (%): 14.4%
[4]; 24 hours
  Amount of compound remaining (%): 4.26%
[1]
  Activity against 6-OHDA in an animal model of Parkinson's disease: active against 6-hydroxydopamine (6-OHDA)
[5]; PBS and/or saline solution
  Stability in aqueous solution (in words): unstable in aqueous solution; also recorded: degraded in both PBS and saline solution
[5]; PBS, 0.5 hours
  Amount of compound remaining (%): 76%
[5]; PBS, 2 hours
  Amount of compound remaining (%): 57%
[5]; PBS, 20 hours
  Amount of compound remaining (%): 28%
[5]; PBS, 48 hours
  Amount of compound remaining (%): 15%
[5]; saline, 0.5 hours
  Amount of compound remaining (%): 98%
[5]; saline, 2 hours
  Amount of compound remaining (%): 85%
[5]; saline, 20 hours
  Amount of compound remaining (%): 22%
MAO-A
  MAO-A inhibition in intestine: Reduced inhibition in the intestinal tissue versus striatal tissue
[6]
  CC50: > 1000 µM
SHSY-5Y; with iron, M30 1 μM
  SHSY-5Y cell death (%): 0.69%
SHSY-5Y; with iron, M30 10 μM
  SHSY-5Y cell death (%): 78.6%
SHSY-5Y; with iron, M30 100 μM
  SHSY-5Y cell death (%): 38.5%
SHSY-5Y; without iron, M30 1 μM
  SHSY-5Y cell death (%): −2. %
SHSY-5Y; without iron, M30 10 μM
  SHSY-5Y cell death (%): 1.0%
SHSY-5Y; without iron, M30 100 μM
  SHSY-5Y cell death (%): 19. %
[2]
  Crossing of the BBB: able to cross the BBB
[7]
  CC50: > 1000 µM

## CC(=O)N(O)CCCCCNC(=O)CCC(=O)N(O)CCCCCNC(=O)CCC(=O)N(O)CCCCCN [Desferal]
[1]
  Activity against 6-OHDA in an animal model of Parkinson's disease: protected the rats against 6-OHDA-induced lesions
[2]
  Crossing of the BBB: does not cross the BBB

## CC/C(=C(\c1ccccc1)c1ccc(OCCN(C)C)cc1)c1ccccc1 [tamoxifen, reference compound]
In vitro
  CC50 at 4 h: ~50 µM
In vitro; LC50 (μM) SHSY-5Y
  CC50 at 4 h: ~50 µM
